Assay results as given in the METLIN SMRT retention time set (Domingo-Almenara et al. 2019).

Test: gradient 5% acetonitrile 3 min, to 50% in 2 min, to 85% in 15 min, held 3 min, 100 µL/min
Conditions: column: Zorbax Extend-C18 2.1 x 50 mm; eluents: water / acetonitrile, 0.1% formic acid
Summary of the method: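 Mixtures of ~100 pure standards were chromatographed on a Zorbax Extend-C18 column (2.1 × 50 mm, 1.8 μm) at 100 μL/min using water and acetonitrile, each with 0.1% formic acid. Detection used a quadrupole time-of-flight mass spectrometer in positive and negative ionization mode, and data collection spanned 3 months. Retention time was obtained from adduct peaks picked computationally and each checked manually.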

SMILES	RP-LC retention time [s]
COc1ccc(NC(=O)C2CC(=O)N(c3ccc4c(c3)CCN4C(C)=O)C2)cc1F (centres undefined)	687
CCOC(=O)c1cccc(N2C=C(C(=O)OC)S(=O)(=O)c3ccc(F)cc32)c1	908
CC(C)CCNC(=O)c1cn(C)nc1S(=O)(=O)N1CCC(C)CC1	996
CC(C)n1c(=O)oc2cc(-c3noc(-c4ccc5cc[nH]c5c4)n3)ccc21	1100
CC(C)CNC(=O)c1cn(-c2ccc(S(=O)(=O)N3CCCC(C)C3)cn2)cn1 (centres undefined)	936
Cc1ccoc1C(=O)N[C@@H]1CN(c2ncccn2)C[C@H]1CO	588
Cc1ccc(NC(=O)Cn2c(=O)c(CCC(=O)NC3CCCC3)nc3ccccc32)c(C)c1	841
CCn1cc(S(=O)(=O)N2C[C@H]3CN(S(=O)(=O)c4cccc(F)c4)C[C@@H](C2)O3)cn1	815
COc1ccc(-c2ccnc3nc(C4CC4)nn23)c(F)c1	797
O=C(Nc1ccc(-c2nc(-c3ccccc3)no2)cc1)C1CC(=O)N(C2CCCCC2)C1 (centres undefined)	1070
CCN1CCCn2nc(C3CCN(S(=O)(=O)c4ccc(F)cc4)CC3)cc2C1=O	761
Cc1cc(C)n(-c2ccnc(NCc3ccc(Br)cc3)n2)n1	946
CCC1CN(S(=O)(=O)c2cc(-c3cc(C)no3)cs2)c2cc(Cl)ccc2O1 (centres undefined)	1240
CCCc1nc(NC(C)c2ccc(OC)c(OC)c2)ncc1C(=O)O (centres undefined)	750
N#Cc1cnn(-c2cccc(Cl)c2)c1-n1cccc1	1070
Cc1ccc(CNC(=O)C2CCCCC(=O)N2C)o1 (centres undefined)	644
Cc1ccc(CNC(=O)C2CCN(c3cnc4nccnc4c3)CC2)cc1	705
CCC(C)NC(=O)NCCC1CCN(S(=O)(=O)c2ccccc2)CC1 (centres undefined)	742
Cc1ccc(S(=O)(=O)CC(=O)Nc2nc(-c3ccc4ccccc4c3)cs2)cc1	1100
O=S(=O)(NCc1nc(-c2ccc(-c3csc(C4CC4)n3)cc2)no1)c1ccc(F)cc1	1080
COCCN(Cc1ccc(F)cc1)Cc1cc(=O)c2cc(F)ccc2[nH]1	815
CCN1C(=O)COc2ccc(-c3noc(-c4ccccc4F)n3)cc21	1070
Cn1nc(C(=O)N2CCCC(C(=O)NC3CC3)C2)c2c1CCN(C(=O)Cc1ccc(Cl)cc1)C2 (centres undefined)	693

SMILES	RP-LC retention time [s]
Cc1cc2nc(C(=O)Nc3ccc(F)c(Cl)c3)cc(C)n2n1	1080
O=C(Nc1cc(F)cc(F)c1)C1CCN(c2cc(N3CCCC3)ncn2)CC1	724
c1ccc2c(c1)CCN(Cc1nc(-c3ccc(N4CCCCCC4)nc3)no1)C2	816
CCc1ccccc1NC(=O)Cn1nc(N2CCCC(C)C2)c2ccccc2c1=O (centres undefined)	1180
CCn1c(=O)c2ccn(CC(=O)NCc3ccc(SC)cc3)c2n(CC)c1=O	744
O=C(Nc1ccc(N2CCN(c3ccccc3)C2=O)nc1)c1ccccc1	906
CC1=C(c2ccc(F)cc2)S(=O)(=O)N=C1N1CCCN(C(=O)NC2CCCC2)CC1	820
CCOc1ccccc1N1CCN(c2cc(C(=O)O)c3cc(NC(=O)C4CCCC4)ccc3n2)CC1	638
Brc1cccc(-c2nnc(Cc3nc(-c4ccc5c(c4)OCO5)no3)o2)c1	1060
CCc1cc(=O)n(CC(=O)Nc2cccc(C#N)c2)c(-c2ccccc2)n1	1080
CC1CCN(C(=O)CN2C(=O)CCCc3cc(S(=O)(=O)N4CCCCC4)ccc32)CC1	901
Cc1ccc(-n2ncc3c(=O)n(Cc4nc(-c5ccc(F)c(Br)c5)no4)cnc32)cc1	1220
O=C([C@@H]1C[C@H](F)CN1C(=O)c1cccc(F)c1)N1CCCCC1	693
O=C(Nc1ccccc1)N1CCC(n2cnc3cc(F)ccc3c2=O)CC1	742
Cc1ccc(Cn2nc3ccc(S(=O)(=O)N4CCc5ccccc5C4)cn3c2=O)cc1	1050
COC(=O)c1c(C)[nH]c(C(=O)N2CCCC(C(=O)NCc3ccccc3)C2)c1C (centres undefined)	732
Cn1cc(CCN2CCN(S(=O)(=O)c3cccc(C#N)c3)CC2)c2cccnc21	608
Cc1cnc(NC(=O)C2CN(c3nc4ccccc4s3)C2)s1	700
CCS(=O)(=O)N1CC(=O)N(c2cccc(F)c2)C(C)(C(=O)NC2CCCCCCC2)C1 (centres undefined)	956
CCOC(=O)c1c(C)[nH]c(C)c1S(=O)(=O)N1CCC(C(=O)Nc2ccc(C)cn2)CC1	646
CCOc1ccc(-c2csc(NC(=O)CCn3c(=O)oc4ccccc43)n2)cc1	997
O=C(NCCCN1CCN(c2ccccc2F)CC1)C1CCCN(c2nc3cccnc3s2)C1 (centres undefined)	652
Cc1noc(C2CN(C(=O)Nc3cccc(Cl)c3)CC23CCOCC3)n1 (centres undefined)	786

SMILES	RP-LC retention time [s]
Cc1c(CCC(=O)NCC2CCCO2)c(=O)n2nc(-c3ccccc3)nc2n1C (centres undefined)	668
O=C(Cn1c(=O)oc2ccccc21)N1CCC(Oc2nc3c(Cl)cccc3s2)CC1	979
COc1ccc(-c2nc(-n3c(C)c4c(C)nnc(C)c4c3C)sc2C)cc1	726
Cc1ccc(CS(=O)(=O)N2CCc3nc(-c4ccc(Cl)cc4)ncc3C2)cc1	1210
CC1CCN(c2cc(-n3cnc(C(=O)N4CCOCC4)c3)ncn2)CC1	750
CN1C(=O)c2[nH]nc(-c3ccccc3)c2C1c1ccc(O)cc1 (centres undefined)	670
COc1cccc(C(=O)N2CCC3(CC2)NCc2ccccc2-n2ccnc23)c1	606
CCC(=O)N1CCc2cn(C)c3cccc(c23)C1	768
COc1ccc(CSc2nnc3c(S(=O)(=O)N4CCCCC4)cccn23)cc1	861
O=C(CNC(=O)c1ccc(F)c(F)c1)Nc1nc2ccccc2[nH]1	632
CCOc1ccc(C(=O)N2CCCCC2c2nncn2C)cc1OCC (centres undefined)	646
CCOC(=O)Cc1csc(NC(=O)CCS(=O)(=O)c2ccccc2)n1	844
Cc1ccc(C(C)C)cc1S(=O)(=O)Nc1cccc(-c2cn3ccccc3n2)c1	739
Cc1cc(NC(=O)C2CCN(C(=O)c3cc(-c4ccc5c(c4)OCO5)n[nH]3)CC2)no1	671
CCOc1ccccc1N1CCN(c2cc(C(=O)O)c3cc(NC(=O)C4CCC4)ccc3n2)CC1	864
CC1=C(c2ccc(Cl)cc2)S(=O)(=O)N=C1N1CCCN(C(=O)C(C)(C)C)CC1	900
Cc1ccc(NC(=O)NC2CCN(c3ccc(F)cc3)C2=O)cc1F (centres undefined)	886
CCC(=O)N1CCc2sc(C(=O)NCc3ccc(Cl)cc3)cc2C1	802
Cc1cc(C)nc(SCC(=O)Nc2nc(-c3ccccc3)c(-c3ccccc3)o2)n1	1050
Cc1cccc(NC(=O)N(C)CCc2noc(COc3ccccc3F)n2)c1C	823
O=C(O)c1nnn(-c2ccc3c(c2)OCCO3)c1-c1ccccn1	640
CCOc1ccc(-c2noc(CN3C(=O)COc4ccc(C(C)(C)C)cc43)n2)cc1OC	1230
COc1ccccc1-c1cc2nc(C)cc(NCC3CCCO3)n2n1 (centres undefined)	592

SMILES	RP-LC retention time [s]
Cc1ccc(-c2noc(CNC(=O)C3CCC(=O)N3S(=O)(=O)c3ccc(C)cc3)n2)cc1 (centres undefined)	929
COC(=O)CNC(=O)N1CCCC1c1ccc(C)cc1 (centres undefined)	739
CCN1C(=O)c2cc(C(=O)Nc3ccc(C)c(C)c3)nn2CC1(C)C(=O)NC1CCCC1 (centres undefined)	884
COc1cc(OC)c(NC(=O)NCC2(N3CCOCC3)CCOC2)cc1Cl (centres undefined)	612
COc1cccc(CN2CCCCCCNC(=O)[C@@H]3CCC[C@@H]32)n1	660
CC(C)n1c(N2CCN(C(=O)c3ccc4c(c3)OCO4)CC2)cc(=O)n(C(C)C)c1=O	823
Cc1cc(C)c(NC(=O)CN2C(=O)NC3(CCCCC3)C2=O)c(C)c1	777
CCCNC(=O)C1CCN(c2ccc(SCC(=O)Nc3cc(Cl)ccc3C)nn2)CC1	690
CCc1cccc(NC(=O)Cn2nc3cc(C)nc(-c4ccccc4)n3c2=O)c1	899
O=c1c2cc(-c3ccc(F)cc3)nn2ccn1Cc1noc(CN2CCCCC2)n1	656
Cc1cc(C)cc(NC(=O)NCC2(N3CCOCC3)CCOC2)c1 (centres undefined)	617
COc1cccc(-c2noc(CN3C(=O)COc4ccc(Cl)cc43)n2)c1	1070
Cc1cccc(-n2nnc(C(=O)O)c2-c2cccnc2)c1	650
Cc1cc(N(C)C)n2nc(-c3ccc(Cl)cc3)c(C)c2n1	744
Cc1cc(C(=O)N2CCOCC2)c2cc(Cl)ccc2n1	640
CCNC(=O)N1CCOc2ccc(N(C)C)cc2C1	548
CCN1C(=O)COc2ccc(-c3noc(-c4ccc(OC)c(OC)c4)n3)cc21	1020
O=C(NC1CCc2nnc(C3CC3)n2CC1)c1ccc(Cn2cncn2)o1 (centres undefined)	558
CCc1c(C(=O)NNC(=O)[C@@H](O)c2cc(F)cc(F)c2)ccc(O)c1C	807
COc1cc(-c2nc3nc(C)cc(C)n3c2Nc2ccccc2)ccc1O	647
